{"source": "patent US10253031B2", "about": "“Stable pemetrexed arginine salt and compositions comprising it” (SYNTHON B.V., priority 2013, dated 2019)", "origin": "cited, not measured here", "conditions": "background statement", "note": "Counter-ions that a name gives are not always drawn.", "data": [{"smiles": "Nc1nc2[nH]cc(CCc3ccc(C(=O)N[C@@H](CCC(=O)O)C(=O)O)cc3)c2c(=O)[nH]1", "note": "[Disodium salt of pemetrexed]", "values": [{"measurement": "Solubility in water", "value": "soluble in water"}]}, {"smiles": "Nc1nc2[nH]cc(CCc3ccc(C(=O)N[C@@H](CCC(=O)O)C(=O)O)cc3)c2c(=O)[nH]1", "note": "[pemetrexed diacid, N-[4-[2-(2-amino-4,7-dihydro-4-oxo-1H-pyrrolo [2,3-d]pyrimidin-5-yl)ethyl]benzoyl]-L-glutamic acid]", "values": [{"measurement": "Solubility in water", "value": "sparingly soluble"}]}]}
